Test results as given in patent US20100048577A1, “Method for treating benign prostate hyperplasia using resveratrol” (priority 2008, published 2010).

Assays:
[1] = test system: induced BPH (prostate weight/body weight ratio); assay: Testosterone enanthate induced BPH in rats, prostate weight after 29 days of treatment (Example 1); assay type: in vivo; settings: Sprague Dawley rats, finasteride 10 mg s.c., resveratrol 1 g/kg in diet, saw palmetto 625 mg/kg in diet
Experimental: Sexually mature Sprague Dawley rats were given two, intramuscular injections of testosterone enanthate, at 25 mg. This induced BPH.
Animals were then divided into different groups. A first group of 5 animals received finasteride, via subcutaneous injection at a dose of 10 mg. A second group received 1 g/kg of body weight of resveratrol, mixed into their diet. A third group received saw palmetto, at 625 mg/kg, mixed into their diet. The control group received the vehicle for the active material only with no active ingredient.
Following 29 days of treatment, all animals were sacrificed. Prostates were dissected free of fat, and weighed.
The injection of the testosterone enanthate increased the prostate weight/body weight ratio by about 2-fold.

[2] = test system: BPH (prostate weight/body weight indices); assay: Cure or prevention of testosterone enanthate induced BPH, fortified diets, prostate weight/body weight index at day 29 (Example 2); assay type: in vivo; settings: testosterone enanthate 25 mg i.m. days 1 and 7, diet with 1 g/kg resveratrol or trimethoxystilbene, 625 mg/kg saw palmetto, or finasteride 10 mg s.c. on 5 days
Experimental: These experiments were designed to determine whether resveratrol and trimethoxystilbene could cure or prevent BPH. Experimental animals received diets that were fortified with one of trans-resveratrol (1 g/kg), trimethoxystilbene (1 g/kg), or saw palmetto (625 mg/kg). An additional group of animals received injections of finasteride fourteen days after the start of the experiment. The animals received one, subcutaneous injection of 10 mg of finasteride in 0.1 ml dimethyl sulfoxide on 5 consecutive days. All animals, except the absolute control group, received injections of testosterone enanthate (25 mg, in 0.1 ml mineral oil). The injections were administered intramuscularly, on days 1 and 7 of the study. The absolute control group received intramuscular injections of 0.1 ml of mineral oil. At day 29, all test animals were weighed, sacrificed and their prostates were dissected free of fat and weighed. Prostate weight/body weight indices were determined for each group.

[3] = test system: Normal human prostate endothelial cells (ATCC CRL-11611); assay: Gene expression of normal human prostate cells treated or not treated with resveratrol (Example 3); assay type: cell-based; settings: resveratrol 50 μM, 48 hours
Experimental: Normal human prostate endothelial cells were obtained from the ATCC (CRL-11611), and were either treated or not treated with resveratrol, at 50 μM, for 48 hours. Gene expression of the cells was compared, via standard methods.

[4] = test system: PSA; assay: PSA expression in prostate tissue of the experimental animals by quantitative PCR (Example 4); assay type: in vivo; settings: animals treated as in Example 2
Experimental: In additional experiments following the details of example 2, supra, levels of PSA expression were tested.
Prostate tissue from the experimental animals was subjected to quantitative PCR, using well known methods. The expression of PSA was compared in untreated, and in resveratrol, and trimethoxystilbene treated animals.

| Compound | effect on testosterone enanthate induced BPH (increased prostate weight/body weight ratio) [1] | prostates (weight) compared with controls [2] | share of the 376 genes known to be involved with apoptosis showing significant down regulation following treatment [3] | level of PSA expression relative to that of the controls [4] |
| --- | --- | --- | --- | --- |
| CC(C)(C)NC(=O)[C@H]1CC[C@H]2[C@@H]3CC[C@H]4NC(=O)C=C[C@]4(C)[C@H]3CC[C@]12C [finasteride, Finasteride, reference compound] | completely reversed the effect | indistinguishable from controls | – | – |
| Oc1ccc(/C=C/c2cc(O)cc(O)c2)cc1 [resveratrol, trans-3,5,4′-trihydroxystilbene] | reversed the induced BPH | indistinguishable from controls | about 10% | about ⅓ |
| COc1ccc(/C=C/c2cc(OC)cc(OC)c2)cc1 [trimethoxystilbene] | – | indistinguishable from controls | – | about ⅓ |
